# Laboratory results taken from patent publication US6855546B1, “Controlling availability or activity of proteins by use of protease inhibitors or receptor fragments” (Universiteit Utrecht, priority 1999, dated 2005).
# Where a SMILES comes first, the peptide text is derived from it. The star is where a group is joined. Cbz = O=C(OCc1ccccc1)*
# What was measured:
# Format in all cases: cell-based, Chinese hamster
# [1] = test system: CHO-ts20 cells expressing GHR; assay: 125I-GH uptake (internalization) kinetic experiment; settings: inhibitor 20 mM added 3 hours before; 125I-GH 8 nM bound on ice, incubated at 30° C.
# Description: FIG. 2. […] CHO-ts20 cells were incubated with or without inhibitors for 3 hours at 30° C., and put on ice for 60 minutes with ^125I-GH. The cells were then incubated at 30° C. as indicated. Background label was determined in untransfected cells and subtracted. Plotted are the amounts of ^125I-GH internalized as a percentage of the cell-associated radioactivity at the start of incubation. □, control (1% ethanol); ●, MG132; ◯, lactocystin; X, lactacystin β-lactone.
# To confirm and quantify the effect of the proteasome inhibitors, we measured the uptake of ^125I-GH in a kinetic experiment. Cells were pretreated with the inhibitors, ^125I-GH was bound on ice, and cells were incubated for various periods of time (FIG. 2). At the end of the incubation period, uptake was determined by washing the cells at low pH to remove the label from the cell surface. Again, GH uptake was inhibited by the proteasome inhibitors: MG132 and lactacystin b-lactone reduced the uptake to approximately 25% of the control level. […] TCA-soluble radioactivity in the culture medium, derived from lysosomal degradation of ^125I-GH, increased after 15 minutes if no inhibitor was added; virtually no TCA-soluble radioactivity appeared if the inhibitors were present (not shown).
# GH binding and internalization. ^125I-hGH was prepared using chloramine T (28). For internalization studies, cells were grown in 35 mm dishes, washed with aMEM, supplemented with 20 mM HEPES, incubated for 1 hour at 30° C. in aMEM/HEPES, ^125I-GH (8 nM) was bound on ice for 60 minutes in the absence or presence of excess unlabeled GH, and the cells were washed free of unbound GH and incubated for 0 to 60 minutes. If indicated, lactacystin or its b-lactone (20 mM), MG132 (20 mM), and ZL3vinylsulfone (20 mM), dissolved in either ethanol or dimethylsulfoxide, or only vehicle, were added 3 hours before the start of the experiment. Membrane-associated GH was removed by acid wash (0.15 M NaCl, 0.05 M glycine, pH 2.5) (29) and internalized GH was determined by measuring the radioactivity after solubilization of the acid-treated cells by 1 M NaOH.
# [2] = test system: CHO-ts20 cells expressing the rabbit GHR; assay: Cy3-GH endocytosis by confocal microscopy, wild-type GHR; settings: 20 mM inhibitor 3 hours at 30° C., then Cy3-GH 30 minutes
# Description: FIG. 1. Effect of proteasome inhibitors on Cy3-GH and Cy3-transferrin endocytosis. CHO-ts20 cells, expressing either wild-type (A, D, G, C, F, I) or truncated GHR (B, E, H), were incubated with vehicle (A-C) or with 20 mM MG132 (D-F) or 20 mM lactacystin (G-I) for 3 hours at 30° C.; then Cy3-GH (A, B, D, E, G, H), or Cy3-transferrin (C, F, I) were added for 30 minutes, and the cells were washed, fixed and the fluorescence was visualized by confocal microscopy. If excess labeled ligand was added, no uptake was observed. If the cells in D, G were treated at pH 2.5 before fixation, virtually no label was visible (not shown).
# Down-regulation of signal-transducing membrane receptors is part of highly programmed cascades of events leading both to extinction of the signaling pathway(s) and to rapid degradation of the primary messenger: the receptor and its ligand (3, 4, 5, 6, 7). In the absence of ligand, the half-life of GHR is approximately 1 to 2 hours depending on the cell system used. The assumption is that this is mainly due to a proteolytic cleavage in the extracellular domain of the GHR resulting in soluble GH-binding protein (8). If ligand is present, a completely different scenario follows: two GHR polypeptides dimerize, they are phosphorylated by the tyrosine kinase Jak2 and ubiquitinated, and the complex is endocytosed. […]
# [3] = test system: cell-surface GHR in CHO-ts20 cells; assay: Degradation of cell-surface biotinylated GHR
# Description: (§1) FIG. 3. Effect of MG132 on GHR degradation in the presence of ligand. A. Cells were pulse labeled with ^35S-methionine and then chased in unlabeled methionine in the presence of 16 nM GH with or without MG132 for the times indicated. GHR was immunoprecipitated using an anti-cytosolic tail antibody. The radioactivity in the mature (upper) band (inset) was quantitated and plotted. □, control (1% ethanol); ●, MG132. B. Cells were biotinylated and incubated in the presence of GH with MG132 or with vehicle only at 30° C. for the time periods indicated. After streptavidin-bead purification aliquots of the cell lysates were analyzed by SDS-PAGF; western blots were incubated with a monoclonal antibody specific for the extracellular GHR domain and detected with enhanced chemifluorescence. The sharp band below the mature GHR (130 kDa) originated from a slight background staining of precursor GHR (110 kDa), due to incomplete removal of biotinylation reagent at cell lysis.
# If proteasome inhibitors affect GHR-uptake, it is expected that the inhibitors prolong the lifetime of GHRs at the cell surface. To address this, we measured the effect of MG132 in a pulse-chase experiment. […] To assess the effect of MG132 more directly, we measured degradation of cell-surface biotinylated GHR after incubation in the presence of ligand (FIG. 3B). […] However, clearance from the cell surface was reduced >50% in the presence of MG132. […] The lifetime of this species was extended in the presence of MG132. Attempts to accumulate this species or other degradation products failed until now.
# Cell surface biotinylation. CHO-ts20 cells, grown in 35 mm dishes, were incubated for 60 minutes at 30° C. in aMEN/HEPES, biotinylated on ice for 30 minutes using sulfo-NHS-SS-biotin (Pierce, Rockford, Ill.), and washed free of biotinylating reagents. For GH binding, the cells were incubated for 1 hour on ice in the presence of 16 nM GH with either 20 mM MG132 or 1% ethanol. The incubation was continued at 30° C. for various time periods in the presence of GH with MG132 or ethanol only. […]
# [4] = test system: mature GHR in CHO-ts20 cells; assay: 35S-methionine pulse-chase of GHR in the presence of GH; settings: 16 nM GH
# Description: as §1, with “The sharp band below the mature GHR (130 kDa) originated from a slight background staining of precursor GHR (110 kDa), due to incomplete removal of biotinylation reagent at cell lysis.” left out
# If proteasome inhibitors affect GHR-uptake, it is expected that the inhibitors prolong the lifetime of GHRs at the cell surface. To address this, we measured the effect of MG132 in a pulse-chase experiment. […] To assess the effect of MG132 more directly, we measured degradation of cell-surface biotinylated GHR after incubation in the presence of ligand (FIG. 3B). […]
# Metabolic labeling. […] The radioactivity was determined using a Molecular Dynamics phosphoimager (STORM860 equipped with ImageQuant software, Molecular Dynamics, Sunnyvale, Calif.). […]
# [5] = test system: GHR in CHO-ts20 cells (temperature-sensitive E1); assay: GH-induced GHR degradation, quantitative western blot, CHO-ts20; settings: 3 hours
# Description: (§2) FIG. 4. GH-induced receptor degradation depends on an intact ubiquitin conjugation system. CHO-ts20 and CHO-E36 cells were incubated at the permissive or non-permissive temperature for 3 hours in the presence or absence of GH. Cells were lysed and aliquots were analyzed by western blotting and enhanced chemifluorescence. M, mature GHR, P, precursor GHR.
# (§3) To investigate whether the ubiquitin system selects the GHR for truncation by the proteasome, we expressed the receptor in CHO-ts20 cells harboring a temperature-sensitive ubiquitin-activating enzyme, E1. The cells were incubated for 60 minutes at 42° C. (sufficient to stop generation of newly ubiquitinated proteins), followed by 3 hours at 40° C. in the presence or absence of GH, and the amounts of GHR were determined by quantitative western blot analysis (FIG. 4). At the permissive temperature, incubation in the presence of GH decreased the steady-state amounts of GHR. If the cells were kept at 40° C. in the presence of GH, the amount of GHR increased to 170%. To ascertain that this increase is solely due to a defective ubiquitin conjugation system, we used the CHO-E36 cells with an intact ubiquitin conjugation system at 40° C. As expected, in these cells the steady state of mature GHR decreased to approximately 50% of that without GH, both at 30 and 40° C. […]
# GHR in CHO-E36 cells = assay: GH-induced GHR degradation, quantitative western blot, CHO-E36; settings: CHO-E36, both at 30 and 40° C.
# Description: as §2, §3
molecule,measurement,setting,value
CC(C)C[C@@H](C=O)NC(=O)[C@H](CC(C)C)NC(=O)[C@H](CC(C)C)NC(=O)OCc1ccccc1 [MG132] (Cbz-Leu-Leu-Leu-aldehyde),125I-GH uptake relative to control,[1],approximately 25 % of the control level
same,Cy3-GH uptake (intracellular fluorescent label),[2],hardly any label was present intracellularly
same,lifetime of biotinylated 85-kDa intermediate degradation product,[3]; in the presence of GH,extended
same,reduction of GHR clearance from the cell surface,"[3]; in the presence of GH (16 nM), 20 mM MG132, 30° C.",> 50%
same,degradation rate of mature GHR,[4],affects the degradation rate of mature GHR
same,membrane transport from ER to the Golgi complex (maturation kinetics 110 kDa to 130 kDa),[4],does not affect membrane transport from ER to the Golgi complex
CC(C)[C@H](O)[C@@]12NC(=O)[C@H](C)[C@@H]1OC2=O [lactacystin b-lactone],125I-GH uptake relative to control,[1],approximately 25 % of the control level
CC(=O)N[C@@H](CSC(=O)[C@]1([C@@H](O)C(C)C)NC(=O)[C@H](C)[C@@H]1O)C(=O)O [lactacystin],125I-GH uptake relative to control,[1],somewhat less effective
same,Cy3-GH uptake (intracellular fluorescent label),[2],hardly any label was present intracellularly
"GH: growth hormone, ligand of the growth hormone receptor",amount of GHR in the presence of GH (percentage of mature GHR present without GH),"[5]; CHO-ts20, 40° C. (non-permissive)",170%
same,steady-state amount of GHR in the presence of GH,"[5]; CHO-ts20, permissive temperature",decreased
same,steady state of mature GHR relative to that without GH,GHR in CHO-E36 cells,approximately 50%
same,disappearance of cell-surface biotinylated GHR,"[3]; incubation in the presence of ligand, 30° C.",induced a rapid disappearance of the GHR
